Assay results reported in patent publication US10934297B2, “5-heteroaryl substituted indazole-3-carboxamides and preparation and use thereof” (Samumed, LLC, priority 2018, dated 2021).

Columns and labels:
[1] = system: Wnt activity (Sp5-Luc reporter in SW480 cells); assay: Screening assay for Wnt activity: Sp5-Luc reporter gene assay in SW480 colon carcinoma cells; type: cell-based, human; conditions: Homo sapiens, 36 to 48 hours
Method in brief: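 EC50 values come from a variable-slope four-parameter fit of luminescence normalized to DMSO-only wells. The read-out follows 36–48 h incubation at 37 °C, 5% CO2, in DMEM containing 1% fetal bovine serum. Cells are hygromycin-selected SW480 stably expressing firefly luciferase under a Wnt-responsive Sp5 promoter (eight TCF/LEF sites).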

DYRK1A kinase = DYRK1A kinase (Homo sapiens (Human), UniProt Q13627); assay: DYRK1A kinase assay (Ser/Thr 18 peptide Z-lyte FRET); type: biochemical; conditions: read-out: EC50 (method: IC50)
Method in brief: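 Kinase reactions with compound ran 1 h at room temperature in duplicate, and development reagent was then added for another hour.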

[2] = system: primary human mesenchymal stem cells (hMSCs); assay: Tenocyte differentiation assay (SCXA-positive cells) in hMSCs; type: cell-based; conditions: for EC50: Homo sapiens, Mesenchymal stem cells, 96 h, hMSCs, 4 days, SCXA positive cells; for percent in parentheses under EC50 >100: given for EC50 >100 μM, meaning not defined in this example
Text: Representative compounds were screened using primary human mesenchymal stem cells (hMSCs) to determine their ability to induce tenocyte differentiation (process by which tendon is developed).
Primary human mesenchymal stem cells (hMSCs) were purchased from Lonza (Walkersville, Md.) and expanded in Mesenchymal Stem Cell Growth Media (Lonza). Cells between passage 3 and 6 were used for the experiments.
Cells were fixed using 4% formaldehyde (Electron Microscopy Sciences), and stained with anti-Sclerasis (anti-SCXA) antibodies (Abgent, San Diego, Calif.) [Webb S., et.al., Retinoic acid receptor signaling preserves tendon stem cell characteristics and prevents spontaneous differentiation in vitro, Stem Cell Research & Therapy 2016, 7:45] overnight at 4° C. […] Number of cells positive for SCXA in each well was quantified using the CellInsight CX5. Data was normalized to the average of 12 DMSO treated wells on the same plate using Dotmatics Studies module. The normalized averages (fold change over DMSO) of 3 replicate wells for each compound concentration were calculated. Due to solubility limitations of some of the compounds, values for higher doses were manually corrected and curve fitting and EC50 determinations were performed using Dotmatics Studies.

[3] = system: primary human fibroblasts derived from IPF patients (LL29 cells); assay: Inhibition of the fibrotic process: αSMA staining in TGF-β1 treated LL29 fibroblasts; type: cell-based; conditions: Homo sapiens, Fibroblast, 96 h; LL29 cells, TGF-β1 20 ng/mL, 4 days, % αSMA positive cells
Method in brief: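 LL29 fibroblasts from IPF patients, in F12 medium with 1% FBS, treated with TGF-β1 plus compound; TGF-β1 with DMSO as positive control, DMSO alone as negative control. After 4 days' incubation, SYTOX green nucleic acid stain added at 1 μM final, 30 min at room temperature.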

IL-6 = IL-6 inhibition in LPS-stimulated human peripheral blood mononuclear cells (HTRF); type: cell-based; conditions: Homo sapiens, PBMC; for EC50: huPBMCs, LPS 50 ng/mL, 22 hours, IL-6 HTRF; for inhibition at 10 µM: read-out: percent inhibition at 10 μM
Method in brief: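 HTRF 665/620 nm ratio, read after 3 h antibody incubation at room temperature, quantified IL-6 released by fresh human PBMCs (1×10e6 cells/mL, 1% FBS-RPMI). The cells got compound, then 50 ng/mL LPS at 2 h, followed by a further 22 h at 37° C. EC50 came from DMSO-normalized readings run in duplicate.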

[4] = system: SW480 colon carcinoma cells; assay: Cell viability assay (CellTiter-Glo) in SW480 colon carcinoma cells; type: cell-based, human; conditions: Homo sapiens, 96 h, four days
Method in brief: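 Viability was taken from CellTiter-Glo ATP luminescence, read about 12 min after reagent addition, relative to DMSO controls. The cells were Sp5-Luc reporter SW480 colon carcinoma cells, 2,000/well in 1% FBS DMEM, exposed to compound for four days at 37 °C.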

GSK3β kinase = GSK3β kinase (Homo sapiens (Human), UniProt P49841); assay: GSK3β kinase assay (Ser/Thr 09 peptide Z-lyte FRET); type: biochemical; conditions: read-out: EC50 (method: IC50)
GSK3β kinase, sequence (P49841 whole entry): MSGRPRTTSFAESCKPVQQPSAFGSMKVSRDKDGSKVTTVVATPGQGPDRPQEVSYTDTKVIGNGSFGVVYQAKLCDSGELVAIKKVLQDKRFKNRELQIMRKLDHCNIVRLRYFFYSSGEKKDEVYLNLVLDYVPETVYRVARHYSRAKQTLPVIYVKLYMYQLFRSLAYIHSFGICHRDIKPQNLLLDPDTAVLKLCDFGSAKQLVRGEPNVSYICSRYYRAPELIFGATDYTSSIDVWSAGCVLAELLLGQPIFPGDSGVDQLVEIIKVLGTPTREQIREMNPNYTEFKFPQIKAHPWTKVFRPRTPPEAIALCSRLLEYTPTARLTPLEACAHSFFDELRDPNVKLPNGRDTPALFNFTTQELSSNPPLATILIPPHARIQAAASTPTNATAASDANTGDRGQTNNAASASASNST
Method in brief: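 Non-radioactive Z-lyte FRET read-out, kinase activity expressed as coumarin/fluorescein emission ratio. Compounds incubated with the reaction mixture one hour at room temperature in duplicate, then development buffer added for another hour. IC50 from non-linear regression of dose-response curves.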

Row | SMILES | EC50 [1] [nM] | IC50 (DYRK1A kinase) [nM] | EC50 [2] [nM] | percent in parentheses under EC50 >100 [2] | EC50 [3] [nM] | EC50 (IL-6) [µM] | inhibition at 10 µM (IL-6) [%] | EC50 [4] [nM] | IC50 (GSK3β kinase) [nM]
1 | Cn1cc(-c2cc(F)c3[nH]nc(C(=O)NC4CCN(CC(F)F)CC4)c3c2)cn1 [Compound 101, N-(1-(2,2-Difluoroethyl)piperidin-4-yl)-7-fluoro-5-(1-methyl-1H-pyrazol-4-yl)-1H-indazole-3-carboxamide] | > 10000 | 408 | > 100000 | (33.0%) | > 10000 | > 10 | 14.1 | > 10000 | 86
2 | Cn1cc(-c2cc3c(C(=O)Nc4cccc(OCCN5CCCC5)c4)n[nH]c3cc2F)cn1 [Compound 154, 6-Fluoro-5-(1-methyl-1H-pyrazol-4-yl)-N-(3-(2-(pyrrolidin-1-yl)ethoxy)phenyl)-1H-indazole-3-carboxamide] | 306 | 5 | > 100000 | (21.0%) | 1130 | 1.86 |  | 414 | 20
3 | CN1CCC(Oc2ccc(NC(=O)c3n[nH]c4ccc(-c5cnn(C)c5)cc34)cn2)CC1 [Compound 124, 5-(1-Methyl-1H-pyrazol-4-yl)-N-(6-((1-methylpiperidin-4-yl)oxy)pyridin-3-yl)-1H-indazole-3-carboxamide] | 140 | 1 | 315 |  | 101 | 0.989 |  | 170 | 23
4 | CN1CCC(Oc2ccc(NC(=O)c3n[nH]c4cc(F)c(-c5ccn(C)n5)cc34)cc2)CC1 [Compound 160, 6-Fluoro-5-(1-methyl-1H-pyrazol-3-yl)-N-(4-((1-methylpiperidin-4-yl)oxy)phenyl)-1H-indazole-3-carboxamide] | 3560 | 61 | > 100000 | (18.6%) | 3240 | > 10 | 27.9 | 2600 | 3260
5 | Cc1ncc(-c2cc(F)c3[nH]nc(C(=O)N[C@@H](C)C(F)(F)F)c3c2)n1C [Compound 134, (S)-5-(1,2-Dimethyl-1H-imidazol-5-yl)-7-fluoro-N-(1,1,1-trifluoropropan-2-yl)-1H-indazole-3-carboxamide] | > 10000 | 482 | > 100000 | (38.8%) | 1070 | > 10 | 8.1 | > 10000 | 46
6 | CN1CCC(Oc2ncc(NC(=O)c3n[nH]c4cc(F)c(-c5cnn(C)c5)cc34)cc2F)CC1 [Compound 157, 6-Fluoro-N-(5-fluoro-6-((1-methylpiperidin-4-yl)oxy)pyridin-3-yl)-5-(1-methyl-1H-pyrazol-4-yl)-1H-indazole-3-carboxamide] | 1150 | 1 | > 100000 | (35.3%) | 2580 | 1.31 |  | 1300 | 20
7 | Cc1ncc(-c2ccc3[nH]nc(C(=O)Nc4ccc(OC5CCN(C)CC5)cc4)c3c2)s1 [Compound 82, N-(4-((1-Methylpiperidin-4-yl)oxy)phenyl)-5-(2-methylthiazol-5-yl)-1H-indazole-3-carboxamide] | 1460 | 7 | > 100000 | (2.9%) | 288 | 3.93 |  | 1250 | 41
8 | Cc1ncc(-c2ccc3[nH]nc(C(=O)N[C@@H](C)C(F)(F)F)c3c2)n1C [Compound 131, (S)-5-(1,2-Dimethyl-1H-imidazol-5-yl)-N-(1,1,1-trifluoropropan-2-yl)-1H-indazole-3-carboxamide] | > 10000 | 220 | 2770 |  | 4490 | > 10 | 15.1 | 3040 | 27
9 | CN1CCC(Oc2ccc(NC(=O)c3n[nH]c4ccc(-c5cnn(C)c5)cc34)cc2)CC1 [Compound 122, 5-(1-Methyl-1H-pyrazol-4-yl)-N-(4-((1-methylpiperidin-4-yl)oxy)phenyl)-1H-indazole-3-carboxamide] | 205 | 2 | > 100000 | (37.4%) | 2640 | 0.948 |  | 380 | 38
10 | Cn1cc(-c2ccc3[nH]nc(C(=O)NCC(F)(F)CN4CCCC4)c3c2)cn1 [Compound 106, N-(2,2-Difluoro-3-(pyrrolidin-1-yl)propyl)-5-(1-methyl-1H-pyrazol-4-yl)-1H-indazole-3-carboxamide] | 685 | 40 | 1300 |  | 795 | 6.85 |  | > 10000 | 14
11 | CN1CCC(Oc2ccc(NC(=O)c3n[nH]c4c(F)cc(-c5cnn(C)c5)cc34)cc2)CC1 [Compound 152, 7-Fluoro-5-(1-methyl-1H-pyrazol-4-yl)-N-(4-((1-methylpiperidin-4-yl)oxy)phenyl)-1H-indazole-3-carboxamide] | 1460 | 38 | > 100000 | (34.7%) | 1120 | 6.85 |  | 783 | 65
12 | Cn1cc(-c2cc(F)c3[nH]nc(C(=O)NC4CCC(F)(F)CC4)c3c2)cn1 [Compound 16, N-(4,4-Difluorocyclohexyl)-7-fluoro-5-(1-methyl-1H-pyrazol-4-yl)-1H-indazole-3-carboxamide] | > 10000 | 378 | 1380 |  | 1010 | > 10 | 37.5 | 7890 | 41
13 | CN1CCC(Oc2ccc(NC(=O)c3n[nH]c4cc(F)c(-c5cn(C)nc5CO)cc34)cc2)CC1 [Compound 153, 6-Fluoro-5-(3-(hydroxymethyl)-1-methyl-1H-pyrazol-4-yl)-N-(4-((1-methylpiperidin-4-yl)oxy)phenyl)-1H-indazole-3-carboxamide] | > 10000 | 1210 | > 100000 | (20.7%) | > 10000 | > 10 | 3.7 | > 10000 | > 10000
14 | CC(C)CN1CC[C@H](NC(=O)c2n[nH]c3ccc(-c4cnn(C)c4)cc23)[C@H](F)C1 [Compound 30, N-((3R,4S)-3-Fluoro-1-isobutylpiperidin-4-yl)-5-(1-methyl-1H-pyrazol-4-yl)-1H-indazole-3-carboxamide] | > 10000 | 12 | 1470 |  | > 10000 | > 10 |  | > 10000 | 61
15 | Cc1ncc(-c2ccc3[nH]nc(C(=O)N[C@H]4CCN(CC(C)C)C[C@@H]4F)c3c2)n1C [Compound 100, 5-(1,2-Dimethyl-1H-imidazol-5-yl)-N-((3 S,4 S)-3-fluoro-1-isobutylpiperidin-4-yl)-1H-indazole-3-carboxamide] | 1020 | 46 | 1880 |  | 2360 | > 10 | 5.5 | 8020 | 43
